Laboratory results taken from ChEMBL document CHEMBL5096214, “Discovery of a new class of valosine containing protein (VCP/P97) inhibitors for the treatment of colorectal cancer” (Bioorg Med Chem, 2022).
pIC50: −log10 of the molar value.

Assays:
HCT-116 = assay: Anti-proliferative activity against human HCT-116 cells assessed as inhibition of cell proliferation incubated for 72 hrs by CellTiter-Glo luminescent assay; format: functional, cell-based; settings: HCT-116, 72 h
[1] = target: Transitional endoplasmic reticulum ATPase (Homo sapiens, UniProt P55072); assay: Inhibition of p97 (unknown origin) using ATP as substrate incubated for 60 mins by ADP-Glo reagent based luminescence assay
[2] = Elimination half life in Sprague-Dawley rat at 10 mg/kg, po measured for 30 hrs by LC-MS/MS analysis; format: ADME, organism-based; settings: in vivo, read-out: beta t1/2 (converted)
[3] = Oral bioavailability in Sprague-Dawley rat at 10 mg/kg measured for 30 hrs by LC-MS/MS analysis; format: ADME, organism-based; settings: in vivo
[4] = AUC (0 to infinity) in Sprague-Dawley rat at 10 mg/kg, po by LC-MS/MS analysis; format: ADME, organism-based; design: time infinity, dose 10 mg/kg, route po; settings: in vivo
[5] = AUC (0 to infinity) in Sprague-Dawley rat at 1 mg/kg, iv by LC-MS/MS analysis; format: ADME, organism-based; design: time infinity, dose 1 mg/kg, route iv; settings: in vivo
[6] = AUC (0 to t) in Sprague-Dawley rat at 1 mg/kg, iv measured for 24 hrs by LC-MS/MS analysis; format: ADME, organism-based; design: time 24 hrs, dose 1 mg/kg, route iv; settings: in vivo
[7] = MRT in Sprague-Dawley rat at 1 mg/kg, iv measured for 24 hrs by LC-MS/MS analysis; format: ADME, organism-based; settings: in vivo
[8] = MRT in Sprague-Dawley rat at 10 mg/kg, po measured for 30 hrs by LC-MS/MS analysis; format: ADME, organism-based; settings: in vivo
[9] = Elimination half life in Sprague-Dawley rat at 1 mg/kg, iv measured for 24 hrs by LC-MS/MS analysis; format: ADME, organism-based; settings: in vivo, read-out: beta t1/2 (converted)
[10] = Tmax in Sprague-Dawley rat at 10 mg/kg, po measured for 30 hrs by LC-MS/MS analysis; format: ADME, organism-based; settings: in vivo
[11] = AUC (0 to t) in Sprague-Dawley rat at 10 mg/kg, po measured for 30 hrs by LC-MS/MS analysis; format: ADME, organism-based; design: dose 10 mg/kg, time 30 hrs, route po; settings: in vivo
[12] = Cmax in Sprague-Dawley rat at 10 mg/kg, po measured for 30 hrs by LC-MS/MS analysis; format: ADME, organism-based; design: dose 10 mg/kg, time 30 hrs, route po; settings: in vivo

Chain of Transitional endoplasmic reticulum ATPase (P55072 whole entry): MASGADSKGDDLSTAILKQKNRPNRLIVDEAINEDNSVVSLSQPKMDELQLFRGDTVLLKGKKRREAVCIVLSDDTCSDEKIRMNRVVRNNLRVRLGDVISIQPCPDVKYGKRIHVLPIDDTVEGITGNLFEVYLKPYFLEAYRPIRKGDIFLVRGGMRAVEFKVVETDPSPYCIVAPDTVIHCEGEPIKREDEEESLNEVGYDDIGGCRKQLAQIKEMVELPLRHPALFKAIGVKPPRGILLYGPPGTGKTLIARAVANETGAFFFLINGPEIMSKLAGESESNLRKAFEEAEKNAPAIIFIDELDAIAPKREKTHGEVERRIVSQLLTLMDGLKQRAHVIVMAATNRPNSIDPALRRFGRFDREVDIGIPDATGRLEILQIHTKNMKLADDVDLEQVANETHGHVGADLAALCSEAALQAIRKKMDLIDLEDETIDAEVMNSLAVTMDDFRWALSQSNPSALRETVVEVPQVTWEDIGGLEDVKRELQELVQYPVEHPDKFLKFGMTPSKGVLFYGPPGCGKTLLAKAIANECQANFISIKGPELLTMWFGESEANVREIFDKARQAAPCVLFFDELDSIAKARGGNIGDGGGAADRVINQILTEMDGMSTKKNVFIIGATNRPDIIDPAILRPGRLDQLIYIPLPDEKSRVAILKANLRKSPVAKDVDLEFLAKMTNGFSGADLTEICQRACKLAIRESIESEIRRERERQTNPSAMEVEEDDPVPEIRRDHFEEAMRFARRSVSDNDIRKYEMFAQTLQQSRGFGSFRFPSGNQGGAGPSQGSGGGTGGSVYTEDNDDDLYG

| SMILES | pIC50 (HCT-116) | pIC50 [1] | also measured |
| --- | --- | --- | --- |
| C/C=C/C(=O)Nc1cccc2c1cc(C)n2-c1nc2c(c(NCc3cccc(O)c3)n1)CCC2 | 5.62 | 7.02 | – |
| Cc1cc2c(NC(=O)/C=C/c3ccccc3)cccc2n1-c1nc2c(c(NCc3cccc(O)c3)n1)CCC2 | – | 5.45 | – |
| Cc1cc2c(C(N)=O)cccc2n1-c1nc2c(c(NCc3cccc(N)c3)n1)CCC2 | – | 6.81 | – |
| CONC(=O)c1cccc2c1cc(C)n2-c1nc2c(c(NCc3cccc(B(O)O)c3)n1)CCC2 | 6.00 | 7.27 | – |
| Cc1cc2c(C(=N)NO)cccc2n1-c1nc2c(c(NCc3cccc(O)c3)n1)CCC2 | 5.96 | 7.46 | – |
| CONC(=O)c1cccc2c1cc(C)n2-c1nc2c(c(NCc3cccc(O)c3)n1)CCC2 | 6.52 | 7.32 | half-life [2]: 2.55 h; bioavailability [3]: 11.1%; AUC(0-inf) [4]: 121 ng·h/mL; AUC(0-inf) [5]: 108 ng·h/mL; AUC(0-t) at 24 h [6]: 94.8 ng·h/mL; MRT [7]: 1.23 h; MRT [8]: 3.35 h; half-life [9]: 0.84 h; Tmax [10]: 0.5 h; AUC(0-t) at 30 h [11]: 108 ng·h/mL; Cmax [12]: 52.5 ng/mL |
| Cc1cc2c(NC(=O)c3ccco3)cccc2n1-c1nc2c(c(NCc3cccc(O)c3)n1)CCC2 | 5.92 | 7.31 | – |
| COc1ccc(/C=C/C(=O)Nc2cccc3c2cc(C)n3-c2nc3c(c(NCc4cccc(O)c4)n2)CCC3)cc1 | – | 5.61 | – |
| CCONC(=O)c1cccc2c1cc(C)n2-c1nc2c(c(NCc3cccc(B(O)O)c3)n1)CCC2 | 5.85 | 7.14 | – |
| Cc1cc2c(NC(=O)c3cccs3)cccc2n1-c1nc2c(c(NCc3cccc(O)c3)n1)CCC2 | – | 6.73 | – |
